The results in this text go back to publication PMC11226702, “Time-resolved crystallography of boric acid binding to the active site serine of the β-lactamase CTX-M-14 and subsequent 1,2-diol esterification” (Communications Chemistry, 2024).

Test [1] concerns the target T1, β-lactamase CTX-M-14 (Klebsiella pneumoniae, UniProt A0A0H3H219).
T1 construct: gene KPHS_p301310
The test is described as follows: time-resolved serial crystallography, formed in situ from Ser70-bound boric acid and glycerol (occupancy […]); IC50 is for boric acid combined with glycerol. Type of test: biochemical.

The target of test [2] is T1, β-lactamase CTX-M-14. The test is described as follows: time-resolved serial crystallography (bound to Ser70, occupancy up to […]); IC50 by photometric cefotaxime hydrolysis assay. In kind it is biochemical.

The IC50 is the concentration that gives 50% inhibition.

T1 sequence (A0A0H3H219 entry or part of it): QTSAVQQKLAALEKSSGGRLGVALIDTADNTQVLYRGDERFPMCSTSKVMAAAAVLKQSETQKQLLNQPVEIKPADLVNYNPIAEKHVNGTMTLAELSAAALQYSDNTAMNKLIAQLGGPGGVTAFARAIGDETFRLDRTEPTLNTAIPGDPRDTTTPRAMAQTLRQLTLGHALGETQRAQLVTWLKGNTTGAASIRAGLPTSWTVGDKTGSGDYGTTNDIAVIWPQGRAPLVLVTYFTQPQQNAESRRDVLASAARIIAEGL

Consider `OCC1COB(O)O1` (racemic) [GBE, glycerol boric acid diester], for which the IC50 at β-lactamase CTX-M-14 [1] was found to be 3.1 ± 0.4 mM.
At β-lactamase CTX-M-14 [2], `OB(O)O` [BAB, boric acid] yielded an IC50 of 2.9 ± 0.4 mM.
